Source: PMC7842274 (ACS catalysis, 2020)

Columns and labels:
[1] = target: Δ80PmHS2 (Pasteurella multocida, UniProt Q5SGE1); assay: apparent kinetics; type: biochemical; settings: alpha1-4-GlcNAcT activity (acceptor; donor not stated in main text)
[2] = target: PmHS2 (Pasteurella multocida, UniProt Q5SGE1); assay: apparent kinetics; type: biochemical; settings: alpha1-4-GlcNAcT activity (acceptor; donor not stated in main text)

For GlcAβ2AA, which Km [1] is on record?
Its Km is 5.3 ± 0.7 mM.

What about the Km [2] of the same substance?
Its Km is 4 ± 0.6 mM.
